According to patent US7173063B1, “Topoisomerase poisons for the treatment of proliferative disorders” (Fred Hutchinson Cancer Research Center, priority 2000, dated 2007):

Key:
ACHN, SW620, A549, MDA-N = experiment: Thymidine incorporation toxicity assay in four cancer derived cell lines; format: cell-based, human; details: for correlation between MDR1 activity and toxicity/sensitivity: A549, SW620, ACHN (MDR1 10, 31, 120); for toxicity in human cancer and vertebrate cells: FIG. 4
Description: (§1) Cell lines were grown at 37° C. in an atmosphere of 5% CO2. The chicken pre-B cell line DT40 and its derivatives (Bezzubova, et al., Cell 89: 185–93 (1997), Takata, et al., EMBO Journal 17: 5497–508 (1998), Yamaguchi-Iwai, et al., Molecular & Cellular Biology 18: 6430–5 (1998)) were grown in RPMI containing 10% fetal calf serum and 1% chicken serum. The remaining cell lines were grown in DMEM with 10% fetal calf serum.
(§2) Toxicity assays in mammalian cell lines were performed using tritiated thymidine incorporation as a measure of the number of viable cells. […] Drug toxicity was measured as follows:
(§3) Cells were plated at a density of 500 cells per well in opaque 96 well plates (Packard) in a volume of 135 μL per well of the appropriate media. The plates were incubated overnight to allow cell adherence. Seven two-fold dilutions of the test compounds were added in a volume of 15 μL per well in triplicate, and 15 μL of media containing an appropriate concentration of DMSO was added to control wells in triplicate. Plates were incubated at 37° C. for 96 hours. The media was then replaced with 100 μL per well of the appropriate media containing 2 μCi/mL of (methyl-^3H) thymidine (Amersham Pharmacia Biotech), then plates were incubated for a further 24 hours at 37° C. Cells were washed three times with PBS, then 100 μL per well of scintillant was added (Microscint 20, Packard), and sealed plates were counted in a microplate reader (Packard Topcount). For suspension chicken cells, (methyl-^3H) thymidine was added directly to the drug-containing media at a concentration of 20 μCi/mL (comprising one tenth of the media volume) and incubated overnight. The suspension cells were transferred to a UniFilter GF/C plate (Packard) and washed with PBS in a plate washer (Packard). After drying, 25 μL per well of scintillant (Microscint 20, Packard) was added, and sealed plates were counted. Toxicity is expressed as a percentage of the control counts. For experiments involving shorter exposures to compounds, cells were grown in the presence of compound for the appropriate time, then the media was replaced with fresh drug-free media, and incubation continued for the remainder of 96 hours, followed by the normal tritiated thymidine uptake and washing protocol.
A common mechanism of tumor resistance to chemotherapeutic agents is overexpression of the drug efflux protein MDR1 (Kane, et al., Advances in Drug Research 28: 182–252 (1996), Nooter, et al., Leukemia Research 18: 233–43 (1994)). MDR1 is overexpressed in many tumor derived cell lines (for instance see http://dtp.nci.nih.gov/), and its overexpression inversely correlates with sensitivity to certain compounds (Kane, et al., Advances in Drug Research 28: 182–252 (1996)).

Rat1a fibroblasts [1] = experiment: Effect of exposure time on toxicity in Rat1a fibroblasts; format: cell-based, rat; details: for toxicity with a two hour exposure: additional experiments; for toxicity of four hour versus six hour exposure: total incubation 96 hours
Description: as §3

Rat1a fibroblasts [2] = experiment: Effect of co-treatment with hydroxyurea (HU) on toxicity in Rat1a fibroblasts; format: cell-based, rat; details: six-hour exposure; 0, 0.25, 0.5 or 1 mM HU
Description: FIG. 6 illustrates the effect of exposure time and hydroxyurea on the toxicity of compound Ia and compound IIa. […] Rat1a fibroblasts were exposed to compound during growth for either four or six hours, the media was changed, then cells were grown for an appropriate period such that total incubation time was 96 hours, and processed as described in the Example below. […] The bar graph insets for each graph show growth inhibition by HU alone.
as §3
A six-hour exposure was used to test whether the toxicity of the same set of compounds is dependent on ongoing DNA synthesis. […] Thus, in contrast to camptothecin and topotecan, compounds Ia and IIa show no marked time dependency for toxicity (FIG. 6A) and are not inhibited by HU (FIG. 6B), indicating critical mechanistic differences between these compounds and camptothecin.

[3] = test system: chicken pre-B cell line DT40; experiment: Thymidine incorporation toxicity assay in isogenic DT40 cells with or without KU70, RAD52, RAD54; format: cell-based; details: for effect of loss of KU70 on toxicity: DT40 with or without KU70; for effect of loss of homologous recombination (RAD52 or RAD54) on toxicity: DT40 with or without RAD52 or RAD54
Description: as §1, §2, §3
In the case of Topo II poisons, the drug/enzyme complex directly produces a DSB, which could occur in all phases of the cell cycle and can apparently be repaired by either DSB repair pathway. Topo I poisons, however, create a single strand break that is converted to a DSB by passage of a replication fork during ongoing DNA synthesis (D'Arpa, et al., Cancer Research 50: 6919–24 (1990), Hsiang, et al., Cancer Research 49: 5077–82 (1989), Holm, et al., Cancer Research 49: 6365–8 (1989)). It has been proposed that DSB's created in this context can only be repaired by homologous recombination, additionally requiring proteins involved in sister chromatid cohesion (Castano, et al., Genes & Development 10: 2564–76 (1996), Castano, et al., Nucleic Acids Research 24: 2404–10 (1996), Walowsky, et al., Journal of Biological Chemistry 274: 7302–8 (1999)).

SMILES	correlation between MDR1 activity and toxicity/sensitivity (ACHN, SW620, A549, MDA-N)	toxicity in human cancer and vertebrate cells (ACHN, SW620, A549, MDA-N)	cell line against which most effective (ACHN, SW620, A549, MDA-N; four tumor derived cell lines)	differences in toxicity between the cell lines (ACHN, SW620, A549, MDA-N; four tumor derived cell lines)	effectiveness of 96 hour exposure relative to four hour exposure (Rat1a fibroblasts [1])	toxicity with a two hour exposure (Rat1a fibroblasts [1])	toxicity of four hour versus six hour exposure (Rat1a fibroblasts [1])	change of toxicity caused by HU co-treatment (Rat1a fibroblasts [2])	inhibition of toxicity by co-treatment with HU (Rat1a fibroblasts [2])	effect of loss of KU70 on toxicity [3]	effect of loss of homologous recombination (RAD52 or RAD54) on toxicity [3]	relative sensitivity of ACHN and A549 (ACHN, SW620, A549, MDA-N)
O=C(CCl)Nc1ccc(C(=O)N/N=C/c2ccc(Cl)cc2)cc1 [compound Ia]	No correlation	toxic in human cancer and vertebrate cells	most effective against the colon carcinoma derived cell line SW620	no significant differences in toxicity	three- to five-fold	nearly full toxicity	equally effective	slight accentuation of toxicity	not inhibited by co-treatment with HU	unaffected by loss of KU70	only marginally affected	
O=c1c(Cl)c(Cl)cnn1CCCl [compound IIa]	No correlation	toxic in human cancer and vertebrate cells	most effective against the colon carcinoma derived cell line SW620		three- to five-fold	nearly full toxicity	equally effective	slight accentuation of toxicity	not inhibited by co-treatment with HU	unaffected by loss of KU70	only marginally affected	ACHN is more sensitive than A549
